Results reported in US20070099250A1, “Methods for treating proliferative diseases and for monitoring the effectiveness of treatment of proliferative diseases” (priority 2003, published 2007).

Key:
[1] = system: Heat-shock 110 kD protein; test: Inverse labeling-MS phosphopeptide analysis of HCT116 cell lysate treated with BPMI; type: cell-based, human; settings: HCT116 cells, 20 μM BPMI, 1.5 hours; phosphopeptide IEpSPKLER
Method: (§1) Human colorectal cell line HCT116 cells are grown in 6-well plates. Prior to harvesting, the cells are treated with 20 μM of the Raf inhibitor BPMI and DMSO control for 1.5 hours, respectively. Cells are then rinsed with PBS, and lysed for 5 minutes at 4° C. in Doriano lysis buffer with 100 μg/mL Perfabloc/2 μg/mL aprotinin/2 μg/mL leupeptin/1 mM NaVO4/10 mM NaF. The supernatant of the lysates are collected after centrifugation at 3,000 rpm for 5 minutes. The protein concentration is determined using Bio-Rad reagent, and the lysates are frozen at −80° C. prior to fkrther processing and analysis.
(§2) One μL of RNase A (20 mg/mL, Sigma, St Louis, Mo.) and 1 μL of RNase T1 (10 units/mL, Invitrogen, Carlsbad, Calif.) are added to each 1 mL of lysates (total 3 mg of HCT116-DMSO control and 3 mg of HCT116-BPMI, respectively), and incubated at 37° C. for half an hour to degrade RNAs. Proteins are denatured using 6 M guanidine HCl, followed by reduction with 20 mM 1,4-dithio-DL-threitol (DTT) at 58° C. for 40 minutes and alkylation with 40 mM iodoacetamide at room temperature for 30 minutes in the dark. Each protein solution is transferred to a Slide-A-Lyzer (10,000 MW cutoff, Pierce, Rockford, IL) dialysis cassette and dialyzed against 2 to 0 M urea/50 mM ammonium bicarbonate to remove small molecule impurities and buffer exchange to 50 mM ammonium bicarbonate. Proteolysis is carried out using modified, sequencing grade trypsin (Promega, Madison, Wiss.) at a 1:200 trypsin-to-protein ratio (wt:wt) in 50 mM ammonium bicarbonate at 37° C. overnight.
(§3) The peptide digests are filtered through Centricon Filters (10,000 MW cutoff, Millipore, Bedford, Mass.) to remove large molecule impurities including detergents. Flow-through (peptides) is collected. Solvent and ammonium bicarbonate are subsequently removed by SpeedVac drying.
(§4) d0- or d3-methanolic HCl (2M) (methyl esterification reagent) is prepared by adding 160 μL of acetyl chloride to 1 niL of anhydrous d0-methyl alcohol or d3-methyl d-alcohol drop wise while stirring. After 10 minutes, 1 mL of the methyl esterification reagent is added to 1.5 mg of lyophilized peptide mixture. The reaction is performed in parallel to two identical aliquots for every sample, one using d0-reagent and one using d3-reagent, respectively. The reaction is allowed to proceed at room temperature for 30 minutes. The excess reagents are removed by SpeedVac drying. Subsequently the peptide mixtures are reconstituted with water. The inverse labeling is achieved by mixing d0-control with d3-treated (BPMI) and d3-control with d0-treated.
(§5) Enrichment of phosphopeptides is performed on a 2.1×30 mm IMAC column (POROS 20 MC, Applied Biosystems, Foster City, Calif.). Briefly, the column is washed with water, 100 mM EDTA in 1 M NaCl, followed by water and 1% acetic acid. The column is then activated with 100 mM FeCl3. […] of the inversely labeled methyl esterified peptide mixture (500 μg each form of d0 and d3) is dissolved in 1% acetic acid in 50% acetonitrile/water, and loaded onto iron-activated IMAC column. The unbound peptides are removed by washing with 1% acetic acid in 50% acetonitrile/water. The bound phosphopeptides are eluted with 2% ammonium hydroxide in 50% acetonitrile/water (pH approximately 9 to 10). Acetic acid is added to neutralize the eluent prior to SpeedVac drying. The phosphopeptide mixture is reconstituted with 0.1% formic acid and analyzed using capillary LC/MS, as described below.
(§6) An Ultimate capillary/nano HPLC system (LC Packings, San Francisco, Calif.) with a Swichos micro column-switching module (LC Packings, San Francisco, Calif.) is used for analysis. Separation is carried out on a 0.18×150 mm capillary column, packed with 3 μm C18 stationary phase of 300-Å pore size (PepMap, LC Packings, San Francisco, Calif.), operating at a flow rate of 2 μL/min. Mobile phase A consists of 0.1% (v/v) formic acid in water and mobile phase B of 0.1% (v/v) formic acid in acetonitrile. […]

[2] = system: Oncogene EMS1; test: as above; type: cell-based, human; settings: HCT116 cells, 20 μM BPMI, 1.5 hours
Method: as §1, §2, §3, §4, §5, §6

[3] = system: Oncoprotein 18; test: as above; type: cell-based, human; settings: for Change (treated/control) in phosphorylation / Change in phosphorylation, % down: HCT116 cells, 20 μM BPMI, 1.5 hours
Method: as §1, §2, §3, §4, §5, §6

[4] = system: Epithelial-cadherin (mouse/human); test: Inverse labeling-MS analysis of DU145 tumor tissue lysates, mouse tumor xenograft, in vivo BPMI; settings: 1 hour BPMI treatment, 200 mg/kg p.o., phosphopeptide MRDWVIPPIpSCPENEK
Method: (§7) The phosphoproteome mapping method is further tested/applied to an in vivo study of the Raf inhibitor, BPMI (one-hour treatment, 200 mg/kg p.o.), in the analysis of tissue lysates of mouse tumor xenograft.
(§8) The methyl esterification/IMAC procedure is successful in removing the blood contamination from the tissue samples. […] Additional changes in phosphorylation are also detected which includes oncogene EMS1, mouse fetuin and Epithelial-cadherin (see Table 2).

[5] = system: Mouse fetuin; test: as above; settings: 1 hour BPMI treatment, 200 mg/kg p.o., phosphopeptide VoxMHTQCHSTPDpSAEDVR
Method: as §7, §8

[6] = system: Oncogene EMS1; test: as above; settings: 1 hour BPMI treatment, 200 mg/kg p.o.
Method: as §7, §8

[7] = system: Oncoprotein 18; test: as above; settings: for Change (treated/control) in phosphorylation / Change in phosphorylation, % down: DU145 tumor tissue, 1 hour BPMI treatment, 200 mg/kg p.o.
Method: as §7, §8

[8] = system: OP18 Ser25 phosphorylation; test: Western blot analysis of Raf-inhibitor-treated HCT116 cell lysates, phospho-Ser25 specific OP18 antibody; type: cell-based, human
Method: HCT1 16 cells are prepared. as in Example 1 above and treated with a Raf inhibitor (BPMI) for 1.5 hr. Cells are lysed in Incomplete Laemmli buffer (0.1 IM Tris.Cl pH 7.0, 4% SDS, 10% glycerol), and passed through a syringe fitted with 25 gauge needle to break apart genomic DNA. The lysate is boiled for 5 minutes, and loaded onto 10% SDS-PAGE gel. Proteins in the SDS-PAGE gel are then transferred to nitrocellulose membrane. The membrane is blocked with 5% milk for 1 hr, and incubated with the an antibody specific for Ser^25 phosphorylated OP18 for an additional hour. The phosphor-Ser^25 specific OP18 antibody is raised in rabbit using standard techniques and purification known in the art. The amino acid sequence used to generate phosphor-Ser^25 specific OP18 antibody is ELILpSPRSKESVPEFP (SEQ ID NO:_). The blot is washed three times with TBST 15 minutes each, and then incubated with anti-rabbit HRP-conjugated antibody for 1 hr. The blot is washed three times with TBST 15 minutes each, and the antibody bound proteins are labeled using SuperSignal West Dura Extended Duration substrate (Piece Biotechnologies, Rockford, Ill.). The phosphorylated OP18 proteins are detected via exposing the blot through a film (Eastman Kodak, Rochester, N.Y.).
(§9) The treatment of HCT116 cells with BPMI leads to the inhibition of OP18 phosphorylation at Ser^25 residue (data not shown). […] Additional data also provides that BPMI inhibits OP18 Ser^25 phosphorylation with an IC50 of approximately 5 μM. Thus, it appears that both MAPK and OP18 Ser^25 phosphorylation are inhibited at a similar level for a given dose of a raf inhibitor.

[9] = system: MAPK pathway in HCT116 cells; test: Inhibition of MAPK pathway in HCT116 cells; type: cell-based, human
Method: as §9

[10] = phosphopeptide LPS*pSPVYEDAASFK
[11] = phosphopeptide T*QpTPPVpSPAPQPTEER

CC(C)(C)c1ccc(Nc2ncc(Cc3ccncc3)c3ccccc23)cc1 [BPMI, 1-(4-t-butylanilino)-4-[(pyridin-4-yl)-methyl]-isoguinoline]
Change (treated/control) in phosphorylation [1]: 0.7
Change in phosphorylation, % down [1]: (30% down)
Change (treated/control) in phosphorylation [2, 10]: 0.8
Change in phosphorylation, % down [2, 10]: (20% down)
Change (treated/control) in phosphorylation [2, 11]: 0.7
Change in phosphorylation, % down [2, 11]: (30% down)
Op18 Ser25 phosphorylation upon BPMI treatment (FIG. 1) ([3]; HCT116 cell lysate, inverse labeling-MS): Down-regulation
Change (treated/control) in phosphorylation ([3]; phosphopeptide ASGQAFELILpSPR): 0.4
Change in phosphorylation, % down ([3]; phosphopeptide ASGQAFELILpSPR): (60% down)
Change (treated/control) in phosphorylation ([3]; phosphopeptide SKESVPEFPLpSPPK): 0.6
Change in phosphorylation, % down ([3]; phosphopeptide SKESVPEFPLpSPPK): (40% down)
Change (treated/control) in phosphorylation [4]: 0.5
Change in phosphorylation, % down [4]: (50% down)
Change (treated/control) in phosphorylation [5]: 0.6
Change in phosphorylation, % down [5]: (40% down)
Change (treated/control) in phosphorylation [6, 10]: 0.7
Change in phosphorylation, % down [6, 10]: (30% down)
Change (treated/control) in phosphorylation [6, 11]: 0.6
Change in phosphorylation, % down [6, 11]: (40% down)
Change (treated/control) in phosphorylation ([7]; phosphopeptide ASGQAFELILpSPR): 0.4
Change in phosphorylation, % down ([7]; phosphopeptide ASGQAFELILpSPR): (60% down)
Change (treated/control) in phosphorylation ([7]; phosphopeptide SKESVPEFPLpSPPK): 0.8
Change in phosphorylation, % down ([7]; phosphopeptide SKESVPEFPLpSPPK): (20% down)
OP18 Ser25 phosphorylation in vivo (FIG. 2B) ([7]; tumor tissue DU145, methyl esterification/IMAC): down-regulation
OP18 phosphorylation at Ser25 residue, Western blot ([8]; HCT116 cells, 1.5 hr treatment (data not shown)): inhibition
Phosphorylation seen at Ser25 residue of the OP18 protein, Western blot ([8]; HCT116 cells, at 10 μM): almost no phosphorylation
IC50 ([8]; additional data, read-out: IC50 for inhibition of OP18 Ser25 phosphorylation): ~5 µM
IC50 [9]: 5.3 µM
